# Test results from PMC2358886, “Evolution of pharmacologic specificity in the pregnane X receptor” (BMC Evolutionary Biology, 2008).
# Where two headings read alike, the source gives them in different places.
# Legend:
# chicken PXR [1] = biological target: T1, chicken PXR (Gallus gallus, UniProt Q9DFH3)
# T1 sequence (Q9DFH3 1-391): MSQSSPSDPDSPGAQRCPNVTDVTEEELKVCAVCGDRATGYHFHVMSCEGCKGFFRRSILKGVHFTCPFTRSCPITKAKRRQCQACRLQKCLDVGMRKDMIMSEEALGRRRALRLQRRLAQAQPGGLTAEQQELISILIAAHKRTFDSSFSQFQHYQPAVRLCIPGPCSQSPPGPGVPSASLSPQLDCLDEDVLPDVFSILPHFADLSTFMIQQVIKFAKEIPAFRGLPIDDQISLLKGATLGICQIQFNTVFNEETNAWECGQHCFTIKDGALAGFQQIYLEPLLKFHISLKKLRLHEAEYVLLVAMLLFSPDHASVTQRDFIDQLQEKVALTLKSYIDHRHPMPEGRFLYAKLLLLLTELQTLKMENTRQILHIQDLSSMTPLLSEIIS
# human PXR [2] = biological target: T2, human PXR (Homo sapiens, UniProt O75469)
# T2 sequence (O75469 1-434): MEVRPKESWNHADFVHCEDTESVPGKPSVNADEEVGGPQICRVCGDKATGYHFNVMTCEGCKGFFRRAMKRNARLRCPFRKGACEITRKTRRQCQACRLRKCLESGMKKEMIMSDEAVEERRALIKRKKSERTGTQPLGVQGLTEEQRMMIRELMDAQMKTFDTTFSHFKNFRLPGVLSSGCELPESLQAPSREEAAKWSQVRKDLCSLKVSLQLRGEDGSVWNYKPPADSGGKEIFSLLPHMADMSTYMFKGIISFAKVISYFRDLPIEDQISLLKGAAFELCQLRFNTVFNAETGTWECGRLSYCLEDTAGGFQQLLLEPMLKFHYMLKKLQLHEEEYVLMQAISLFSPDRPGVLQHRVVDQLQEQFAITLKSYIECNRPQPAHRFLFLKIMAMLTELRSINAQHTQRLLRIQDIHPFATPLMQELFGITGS
# HepG2 cells [3] = system: HepG2 cells
# human PXR [4] = biological target: T2, human PXR; test: PXR activation luciferase reporter assay, human PXR in HepG2-NTCP cells
# zebrafish PXR [5] = biological target: T3, zebrafish PXR (Danio rerio, UniProt A5WYG8); test: cell-based
# T3 sequence (A5WYG8 144-430): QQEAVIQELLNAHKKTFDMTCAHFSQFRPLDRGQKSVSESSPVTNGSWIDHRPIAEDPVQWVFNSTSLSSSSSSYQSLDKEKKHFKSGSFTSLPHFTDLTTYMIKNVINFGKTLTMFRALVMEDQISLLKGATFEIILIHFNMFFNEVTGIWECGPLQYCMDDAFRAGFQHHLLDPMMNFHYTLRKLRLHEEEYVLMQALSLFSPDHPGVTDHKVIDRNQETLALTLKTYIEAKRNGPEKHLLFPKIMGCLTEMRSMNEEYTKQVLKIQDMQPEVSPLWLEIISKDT
# chicken PXR [6] = biological target: T1, chicken PXR; test: cell-based
# zebrafish PXR [7] = biological target: T3, zebrafish PXR; settings: for zfPXR Activity: -log(EC50), EC50 in molar units, activation of zebrafish PXR
# rabbit PXR = biological target: T4, rabbit PXR (Oryctolagus cuniculus, UniProt Q9TU02); test: PXR activation luciferase reporter assay, rabbit PXR; settings: for Rabbit PXR efficacy, ε: relative to 50 μM 5α-pregnan-3,20-dione, assigned an efficacy of 1.0; for Rabbit PXR Activity: -log(EC50), EC50 in molar units
# T4 sequence (Q9TU02 1-411): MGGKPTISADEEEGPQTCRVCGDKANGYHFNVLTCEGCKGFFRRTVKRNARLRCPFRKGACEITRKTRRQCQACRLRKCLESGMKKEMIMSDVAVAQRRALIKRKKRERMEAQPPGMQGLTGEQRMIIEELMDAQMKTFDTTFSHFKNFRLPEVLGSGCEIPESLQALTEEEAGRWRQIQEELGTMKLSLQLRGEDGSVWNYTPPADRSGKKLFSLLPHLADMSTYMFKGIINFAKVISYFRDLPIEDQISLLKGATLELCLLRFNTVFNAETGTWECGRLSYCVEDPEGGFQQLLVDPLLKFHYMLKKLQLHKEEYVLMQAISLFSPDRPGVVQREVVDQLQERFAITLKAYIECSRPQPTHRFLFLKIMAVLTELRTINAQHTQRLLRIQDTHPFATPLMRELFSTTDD
# mouse PXR = biological target: T5, mouse PXR (Mus musculus, UniProt O54915); settings: for Mouse PXR Activity: -log(EC50), EC50 in molar units
# T5 sequence (O54915 1-431): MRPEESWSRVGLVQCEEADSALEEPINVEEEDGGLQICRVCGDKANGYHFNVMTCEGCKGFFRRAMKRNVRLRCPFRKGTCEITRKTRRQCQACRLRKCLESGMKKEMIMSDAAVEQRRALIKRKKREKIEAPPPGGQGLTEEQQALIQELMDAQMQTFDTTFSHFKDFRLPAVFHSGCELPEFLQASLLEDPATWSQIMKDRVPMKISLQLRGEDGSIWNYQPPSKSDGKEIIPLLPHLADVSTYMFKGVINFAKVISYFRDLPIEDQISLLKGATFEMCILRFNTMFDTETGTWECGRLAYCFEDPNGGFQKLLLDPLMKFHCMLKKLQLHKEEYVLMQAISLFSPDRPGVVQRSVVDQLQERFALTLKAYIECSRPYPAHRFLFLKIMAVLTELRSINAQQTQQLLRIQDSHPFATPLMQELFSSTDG
# rat PXR = biological target: T6, rat PXR (Rattus norvegicus, UniProt Q9R1A7); settings: for Rat PXR Activity: -log(EC50), EC50 in molar units
# T6 sequence (Q9R1A7 1-431): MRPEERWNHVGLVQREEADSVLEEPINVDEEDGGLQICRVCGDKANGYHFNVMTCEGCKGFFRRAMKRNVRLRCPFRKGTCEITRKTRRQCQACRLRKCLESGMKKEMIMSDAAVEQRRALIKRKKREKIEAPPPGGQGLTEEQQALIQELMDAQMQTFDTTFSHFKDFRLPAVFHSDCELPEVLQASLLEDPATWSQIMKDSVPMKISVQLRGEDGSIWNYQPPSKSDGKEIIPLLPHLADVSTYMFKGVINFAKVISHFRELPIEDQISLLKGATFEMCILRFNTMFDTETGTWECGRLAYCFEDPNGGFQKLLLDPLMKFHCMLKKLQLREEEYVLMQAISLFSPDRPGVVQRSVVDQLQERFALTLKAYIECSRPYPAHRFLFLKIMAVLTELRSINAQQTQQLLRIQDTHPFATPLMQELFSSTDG
# HepG2 cells [8] = test: Toxicity assays in HepG2 cells (MTT and alamar blue reduction); settings: lowest concentration that produced significant toxicity in the HepG2 cells
# [9] = relative to 20 μM pregnenolone 16α-carbonitrile, assigned an efficacy of 1.0
# [10] = -log(EC50), EC50 in molar units, activation of human PXR
# [11] = -log(EC50), EC50 in molar units
smiles,measurement,setting,value
"C[C@]12CC[C@@H](O)C[C@@H]1CC[C@@H]1[C@@H]2CC[C@]2(C)[C@@H](O)CC[C@@H]12 [AN1, 5α-Androstan-3α,17β-diol]","Chicken PXR efficacy, ε","chicken PXR [1]; relative to 20 μM nifedipine, assigned an efficacy of 1.0",2.28
same,hPXR Efficacy,human PXR [2]; human,0.68
same,Toxicity,HepG2 cells [3],None
same,EC50,"human PXR [4]; hPXR Activity, -log(EC50), EC50 in molar units, activation of human PXR",4.17 µM
same,EC50,"zebrafish PXR [5]; zfPXR Activity, -log(EC50), EC50 in molar units, activation of zebrafish PXR",6.46 µM
same,EC50,chicken PXR [6],8.51 µM
same,zfPXR Efficacy,"zebrafish PXR [7]; relative to 20 μM 5α-androstan-3α-ol, assigned an efficacy of 1.0",0.84
"C[C@]12CC[C@H](O)C[C@@H]1CC[C@@H]1[C@@H]2CC[C@]2(C)C=CC[C@@H]12 [AN21, 5α-Androst-16-en-3β-ol]","Chicken PXR efficacy, ε",chicken PXR [1]; chicken,2.99
same,Toxicity,"HepG2 cells [3]; human, 24 hr",50 µM
same,EC50,human PXR [4],4.79 µM
same,EC50,zebrafish PXR [5],3.31 µM
same,EC50,chicken PXR [6],7.24 µM
same,zfPXR Efficacy,zebrafish PXR [7]; zebrafish,2.11
"C[C@]12CCC(=O)C[C@@H]1CC[C@@H]1[C@@H]2CC[C@]2(C)C=CC[C@@H]12 [AN22, 5α-Androst-16-en-3-one]","Chicken PXR efficacy, ε",chicken PXR [1]; chicken,0.77
same,Toxicity,"HepG2 cells [3]; human, 24 hr",100 µM
same,EC50,human PXR [4],3.02 µM
same,EC50,zebrafish PXR [5],2.63 µM
same,EC50,chicken PXR [6],10.2 µM
same,zfPXR Efficacy,zebrafish PXR [7]; zebrafish,0.68
"CC(CCC(=O)NCC(=O)O)C1CCC2C3C(O)CC4CC(O)CCC4(C)C3CCC12C (stereo not drawn) [BI006, Glycochenodeoxycholic acid]","Chicken PXR efficacy, ε",chicken PXR [1]; chicken,0.41
same,EC50,chicken PXR [6],25.1 µM
"CC(CCC(=O)NCC(=O)O)C1CCC2C3CCC4CC(O)CCC4(C)C3CC(O)C12C (stereo not drawn) [BI009, Glycodeoxycholic acid]",EC50,rabbit PXR,15.5 µM
same,"Rabbit PXR efficacy, ε",rabbit PXR,0.40
"C[C@H](CCC(=O)NCCS(=O)(=O)O)[C@H]1CC[C@H]2[C@@H]3CC[C@@H]4C[C@H](O)CC[C@]4(C)[C@H]3C[C@H](O)[C@]12C [BI010, Taurodeoxycholic acid]",EC50,rabbit PXR,14.5 µM
same,"Rabbit PXR efficacy, ε",rabbit PXR,0.15
"CC(CCC(=O)O)C1CCC2C3C(O)C(O)C4CC(O)CCC4(C)C3CCC12C (stereo not drawn) [BI017, ω-Muricholic acid]",Mouse PXR Activity,mouse PXR,No effect
same,Rat PXR Activity,rat PXR,No effect
"C[C@H](CCC(=O)O)[C@H]1CC[C@H]2[C@@H]3[C@H](O)[C@@H](O)[C@@H]4C[C@H](O)CC[C@]4(C)[C@H]3CC[C@]12C [BI018, α-Muricholic acid]",Mouse PXR Activity,mouse PXR,4.59
same,"Mouse PXR efficacy, ε",mouse PXR; [9],2.63
same,Rat PXR Activity,rat PXR,3.95
same,"Rat PXR efficacy, ε",rat PXR; [9],1.31
"C[C@H](CCC(=O)O)[C@H]1CC[C@H]2[C@@H]3[C@@H](O)[C@@H](O)[C@@H]4C[C@H](O)CC[C@]4(C)[C@H]3CC[C@]12C [BI019, β-Muricholic acid]",Mouse PXR Activity,mouse PXR,No effect
same,Rat PXR Activity,rat PXR,No effect
"C[C@H](CCC(=O)NCC(=O)O)[C@H]1CC[C@H]2[C@@H]3[C@H](O)C[C@@H]4C[C@H](O)CC[C@]4(C)[C@H]3C[C@H](O)[C@]12C [BI021, Glycocholic acid]",Chicken PXR Activity,chicken PXR [1],No effect
same,Mouse PXR Activity,mouse PXR,No effect
same,Rat PXR Activity,rat PXR,No effect
"C[C@H](CCC(=O)O)[C@H]1CC[C@H]2[C@@H]3C(=O)C[C@@H]4C[C@H](O)CC[C@]4(C)[C@H]3C[C@H](O)[C@]12C [BI042, 5β-Cholanic acid-3α,12α-diol-7-one]",hPXR Activity,human PXR [4]; [10],4.24
same,hPXR Efficacy,"human PXR [4]; relative to 10 μM rifampicin, assigned an efficacy of 1.0",0.49
same,Toxicity,HepG2 cells [8],None
same,zfPXR Activity,zebrafish PXR [7],None
same,Rabbit PXR Activity,rabbit PXR,4.31
same,"Rabbit PXR efficacy, ε",rabbit PXR,1.55
"C[C@H](CCC(=O)NCCS(=O)(=O)O)[C@H]1CC[C@H]2[C@@H]3[C@@H](O)[C@@H](O)[C@@H]4C[C@H](O)CC[C@]4(C)[C@H]3CC[C@]12C [BI046, 5β-Cholanic acid-3α,6β,7β-triol N-(2-sulfoethyl)-amide]",Chicken PXR Activity,chicken PXR [1]; [11],No effect
same,hPXR Activity,human PXR [4]; [10],None
same,Mouse PXR Activity,mouse PXR,No effect
same,Rat PXR Activity,rat PXR,No effect
same,Toxicity,HepG2 cells [8],None
same,zfPXR Activity,zebrafish PXR [7],None
same,Rabbit PXR Activity,rabbit PXR,No effect
"CC(C)CCC[C@@H](C)[C@H]1CC[C@H]2[C@@H]3[C@H](O)C=C4C[C@@H](O)CC[C@]4(C)[C@H]3CC[C@]12C [BI047, 7α-Hydroxycholesterol]",Chicken PXR Activity,chicken PXR [1]; [11],No effect
same,Toxicity,HepG2 cells [3],None
same,hPXR Activity,human PXR [4]; [10],None
same,Mouse PXR Activity,mouse PXR,No effect
same,Rat PXR Activity,rat PXR,No effect
same,zfPXR Activity,zebrafish PXR [7],None
same,Rabbit PXR Activity,rabbit PXR,No effect
"c1ccc2c(c1)cc1ccc3cccc4ccc2c1c34 [MI3, Benzo [a]pyren]","Chicken PXR efficacy, ε",chicken PXR [1],0.50
same,Chicken PXR Activity,chicken PXR [1]; [11],4.40
same,hPXR Efficacy,human PXR [2],0.55
same,Toxicity,HepG2 cells [3],100 µM
same,hPXR Activity,human PXR [4]; [10],4.75
same,"Mouse PXR efficacy, ε",mouse PXR,0.94
same,Mouse PXR Activity,mouse PXR,4.86
same,"Rat PXR efficacy, ε",rat PXR,0.45
same,Rat PXR Activity,rat PXR,4.85
same,zfPXR Efficacy,zebrafish PXR [7],0.06
same,zfPXR Activity,zebrafish PXR [7],4.00
same,Rabbit PXR Activity,rabbit PXR,No effect
"CC(=O)[C@H]1[C@H](C#N)C[C@H]2[C@@H]3CC=C4C[C@@H](O)CC[C@]4(C)[C@H]3CC[C@@]21C [PR13, 5-Pregnen-16α-cyano-3β-ol-20-one]",Toxicity,HepG2 cells [3],None
same,hPXR Activity,human PXR [4]; [10],None
same,"Mouse PXR efficacy, ε",mouse PXR,6.41 (ε = 1.0)
same,Mouse PXR Activity,mouse PXR,6.41 (ε = 1.0)
same,"Rat PXR efficacy, ε",rat PXR,6.20 (ε = 1.0)
same,Rat PXR Activity,rat PXR,6.20 (ε = 1.0)
same,zfPXR Activity,zebrafish PXR [7],None
